Results: patent publication US12491145B2, “Synthesis and purification of cannabigerol and its application” (SYMRISE AG, priority 2019, dated 2025)

Legend:
B16 melanoma cells = assay: Determination of melanin content in B16 cells; format: cell-based, mouse
Method: (§1) Cell Culture. The cell line B16 (mouse melanocytes, obtained from ATCC and part of SimDerma platform) was maintained in supplemented DMEM medium containing 10% FBS and 1% antibiotics penicillin/streptomycin (DMEM complete medium) at 37° C. in a humidified atmosphere of 5% CO2.
(§2) Determination of Melanin Content and Cytotoxicity in B16 cells: To analyse the effect of cannabigerol (1) on melanogenesis, B16 melanoma cells were used as a cellular assay system to evaluate the depigmenting activity in cell cultures. B16 cells (4A5) were treated for 3 days with several doses of the compounds (cannabigerol (1) or kojic acid). The cells were washed with phosphate buffer saline (PBS) at the end of the treatment and dissolved in 1 N NaOH containing 10% DMSO for 1 h at 60° C. The absorbance at 405/490 nm was measured (TriStar LB 941 Berthold Technologies, GmbH & Co. KG) and the melanin content quantified with a reference standard of synthetic melanin (Sigma-Aldrich, St Louis, Mo., USA). Cytotoxicity was measured in parallel by the MTT assay to discard that melanin inhibition is not masked by cytotoxicity. Kojic acid was used as a positive control.

tyrosinase = target: T1, tyrosinase (Mus musculus, UniProt P11344); assay: Measurement of tyrosinase activity in lysates of treated B16 cells (L-dopa, dopachrome formation, 475 nm); format: cell-based
T1 construct: host or cells: B16 mouse melanocytes (melanoma line)
T1 sequence (P11344 19-533): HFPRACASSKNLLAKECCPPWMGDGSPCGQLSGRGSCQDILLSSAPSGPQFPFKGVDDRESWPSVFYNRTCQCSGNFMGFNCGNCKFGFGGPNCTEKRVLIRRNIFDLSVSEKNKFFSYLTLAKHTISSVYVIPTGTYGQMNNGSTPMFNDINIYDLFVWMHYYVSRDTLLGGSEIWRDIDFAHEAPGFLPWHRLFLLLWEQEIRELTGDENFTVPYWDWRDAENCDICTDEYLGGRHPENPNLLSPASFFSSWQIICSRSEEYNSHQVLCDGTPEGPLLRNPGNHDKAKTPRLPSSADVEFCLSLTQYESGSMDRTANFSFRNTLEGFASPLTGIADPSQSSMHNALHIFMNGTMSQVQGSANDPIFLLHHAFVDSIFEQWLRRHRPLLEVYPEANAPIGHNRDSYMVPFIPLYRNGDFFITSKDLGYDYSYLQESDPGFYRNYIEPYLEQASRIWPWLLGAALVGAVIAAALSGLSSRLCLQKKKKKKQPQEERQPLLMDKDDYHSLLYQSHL
Method: as §1
Measurements of Tyrosinase Activity: To measure the tyrosinase activity of the cells, B16 cells were treated for 3 days with several doses of the compounds (cannabigerol (1) or kojic acid), then lysed by incubation at 4° C. for 30 min in lysis buffer (20 mM sodium phosphate, pH 6.8, 1% Triton X-100, 1 mM PMSF, 1 mM EDTA) containing protease inhibitors cocktail. The lysates were centrifuged at 15.000 g for 10 min to obtain the supernatant as the source of tyrosinase. The reaction mixture contained 20 mM phosphate buffer, pH 6.8, 1.25 mM L-dopa (Sigma-Aldrich). After incubation at 37° C. for 30 min, dopachrome formation was monitored by measuring absorbance at a wavelength of 475 nm in a microplate reader (TriStar LB 941 Berthold Technologies, GmbH & Co. KG). Kojic acid was used as a positive control.

B16 cells = format: cell-based, mouse
Method: as §2

Compound | reduction of melanin production (B16 melanoma cells; 2 mM, B16 cells, 3 days) | inhibition of tyrosinase compared with positive control (tyrosinase; 1 μg/ml cannabigerol vs 2 mM kojic acid, B16 cells, 3 days) | doses at which tyrosinase activity was inhibited (tyrosinase; B16 cells treated for 3 days) | inhibition compared with reference inhibitor in the used test systems (tyrosinase activity, melanin production; FIG. 2 and 3) (tyrosinase; B16 melanocytes) | melanin production, dose dependence (B16 melanoma cells) | inhibition at 1 µg/mL (B16 melanoma cells; Mus musculus, B16, 72 h, read-out: inhibition of melanin production) | cytotoxic effects (B16 cells)
O=c1cc(CO)occ1O [kojic acid, reference compound] | approx. 20% |  |  |  |  |  | 
CCCCCc1cc(O)c(C/C=C(\C)CCC=C(C)C)c(O)c1 [Cannabigerol (1), Cannabigerol] |  | as potent as the effect of 2 mM of kojic acid | ≥ 0.5 µg/mL | stronger inhibition than the used reference inhibitor kojic acid | dose dependently prevented | ~30% | no cytotoxic effects
